Common to all, as to type: physicochemical
A short description of data set [1]: Crystal form stability at room temperature (transformation to H2-1). The settings on record: H0.75-3: after one night. From the text: WO20100115974 discloses three forms of saxagliptin hydrochloride (I-S, HT-S, IV-S) but with a water content of not more than 1.5% by weight. […] On the other hand, the saxagliptin hydrochloride dihydrate H2-1 is stable. Unfortunately, it is difficult to prepare it in pure form by an industrial process which could be reproducible at industrial scale.

Data set [2] can be described thus: Solubility and stability in water at room temperature. The settings on record: for Solubility in water compared with saxagliptin HCl dihydrate H2-1 / Solubility in water: volumes of water in which the form is soluble: room temperature.
Data set [3] is described as follows: Crystalline stability at 60° C.-37% RH (XRPD). The settings on record: stored at 60° C. with 37% RH. As for the experimental part: Crystalline and chemical stability at 60° C.-37% RH: saxagliptin crystalline form I and the known saxagliptin crystalline forms H-1, H2-1 were stored at 60° C. with 37% relative humidity (RH). The samples were analyzed by XRPD and HPLC-MS to check crystalline transformation and chemical degradation. […] However, chemical degradations were observed (see Table 6 below).
(§1) Crystalline and chemical stability at 60° C.—37% RH: Saxagliptin crystalline forms H-1, H2-1 and A were stored at 60° C. with 37% RH. The samples were analyzed by XRPD and HPLC-MS to check crystalline transformation and chemical degradation.

The nature of data set [4]: Chemical stability at 60° C.-37% RH (amidine impurities by HPLC-MS). The settings on record: for Color of the solid form after storage: after 1 week. As for the experimental part:
Crystalline and chemical stability at 60° C.-37% RH: saxagliptin crystalline form I and the known saxagliptin crystalline forms H-1, H2-1 were stored at 60° C. with 37% relative humidity (RH). The samples were analyzed by XRPD and HPLC-MS to check crystalline transformation and chemical degradation.
as §1

Counter-ions that a name gives are not always drawn.

For `N#C[C@@H]1C[C@@H]2C[C@@H]2N1C(=O)[C@@H](N)C12CC3CC(CC(O)(C3)C1)C2` [IV-S, saxagliptin hydrochloride], the “Crystal form stability (transformation to saxagliptin hydrochloride dihydrate H2-1)” value (from here on “Crystal form stability”) in data set [1] (hydrochloride) is “not very stable”.
“saxagliptin HCl.malonic acid cocrystal (3:2) hydrate [Form III]”: in data set [2], the “Solubility in water (in words, description)” value was “soluble in water”; the “Solubility in water compared with saxagliptin HCl dihydrate H2-1” value was “solubility similar”; the “Solubility in water: volumes of water in which the form is soluble” value (“Solubility in water: volumes of water” for short) is reported as “approximately 4 volumes of water”.
Taken in the same sequence, the figures for `Cl.N#C[C@@H]1C[C@@H]2C[C@@H]2N1C(=O)[C@@H](N)C12CC3CC(CC(O)(C3)C1)C2.NC(N)=O.NC(N)=O.NC(N)=O` [Form IV, saxagliptin HCl.urea cocrystal (1:3)] were “very soluble in water”, “more soluble” and “approximately 2.5 volumes of water”.
“saxagliptin HCl.saxagliptin cocrystal (1:1) hydrate [Form I]”: the “Crystalline transformation (XRPD)” value in data set [3] is “No crystalline transformations were observed”. Further, the “Solubility in water (in words, description)” value in data set [2] is “soluble in water”. Further, the Solubility in water entry in data set [2] (20 vol. in water at room temperature (20-25° C.)) is reported as “soluble”. In addition, the “Stability in water (reprecipitation)” value in data set [2] (20 vol. in water at room temperature, after 24 h) was “reprecipitation was not observed”. Further, the “Degradation rate / stability compared with free base H-1 and hydrochloride H2-1” value in data set [4] is “much lower”. Further, the “Δ variation amidine Impurity % (HPLC-MS), impurity (A)” value in data set [4] (16 h (Table 6)) is 0.08% (A); in data set [4] (168 h (Table 6)), 0.38% (A); in data set [4] (184 h (Table 6)) it was 0.40% (A). The “Color of the solid form after storage” value in data set [4] is “remained white”.
Take `N#C[C@@H]1C[C@@H]2C[C@@H]2N1C(=O)[C@@H](N)C12CC3CC(CC(O)(C3)C1)C2` [Form H-1, (1S,3S,5S)-2-[(2S)-2-amino-2-(3-hydroxy-1-adamantyl)acetyl]-2-azabicyclo[3.1.0]hexane-3-carbonitrile]: the “Crystalline transformation (XRPD)” value in data set [3] is given as “No crystalline transformations were observed”. For the same compound, the “Δ variation amidine Impurity % (HPLC-MS), impurity (A)” value is 0.64% (A) in data set [4] (16 h (Table 6)), 2.68% in data set [4] (168 h (Table 6)) and 2.86% (A) + in data set [4] (184 h (Table 6)). Further, the “Δ variation amidine Impurities A and B % (HPLC-MS), impurity (A)” value in data set [4] (16 h (Table 7)) was 0.6% (A); in data set [4] (168 h (Table 7)), 2.7%. Besides, the “Δ variation amidine Impurity % (HPLC-MS), impurity (B)” value in data set [4] (168 h (Table 6)) is listed as 2.21%; in data set [4] (184 h (Table 6)), 2.33% (B). In data set [4] (168 h (Table 7)), the “Δ variation amidine Impurities A and B % (HPLC-MS), impurity (B)” value amounted to 2.2%. For the same compound, the “Color of the solid form after storage” value in data set [4] is given as “became yellowish”.
Consider `Cl.N#C[C@@H]1C[C@@H]2C[C@@H]2N1C(=O)[C@@H](N)C12CC3CC(CC(O)(C3)C1)C2.O.O=C(O)CO` [Form II, saxagliptin HCl glycolic acid cocrystal (1:1) monohydrate], for which, in data set [2], the “Solubility in water (in words, description)” value is given as “quite soluble in water”; the “Solubility in water compared with saxagliptin HCl dihydrate H2-1” value is given as “same solubility”; the “Solubility in water: volumes of water” value is 5 volumes of water.
As to `N#C[C@@H]1C[C@@H]2C[C@@H]2N1C(=O)[C@@H](N)C12CC3CC(CC(O)(C3)C1)C2` [I-S, saxagliptin hydrochloride], the “Crystal form stability” value in data set [1] (hydrochloride) is on record as “not very stable”.
For `N#C[C@@H]1C[C@@H]2C[C@@H]2N1C(=O)[C@@H](N)C12CC3CC(CC(O)(C3)C1)C2` [Form P-5, saxagliptin hydrochloride], in data set [1] (hydrochloride), the “Crystal form stability” value is on record as “not very stable”.
The same measure, in the same setting: the entry for `N#C[C@@H]1C[C@@H]2C[C@@H]2N1C(=O)[C@@H](N)C12CC3CC(CC(O)(C3)C1)C2` [HT-S, saxagliptin hydrochloride] is “not very stable”.
Regarding `N#C[C@@H]1C[C@@H]2C[C@@H]2N1C(=O)[C@@H](N)C12CC3CC(CC(O)(C3)C1)C2` [Form H2-1, saxagliptin hydrochloride dihydrate, reference compound], the “Solubility in water: volumes of water” value in data set [2] is 5 volumes of water. In data set [1] (hydrochloride dihydrate), the “Crystal form stability” value is recorded as “stable”.
For `N#C[C@@H]1C[C@@H]2C[C@@H]2N1C(=O)[C@@H](N)C12CC3CC(CC(O)(C3)C1)C2` [Form H0.75-3, saxagliptin hydrochloride], the “Crystal form stability” value in data set [1] (hydrochloride) is “transforms to saxagliptin hydrochloride dihydrate H2-1”.
